Here are results for 19 compounds from patent US6414147B1, “2-amino-9-alkylpurines: GABA brain receptor ligands” (Neurogen Corporation, priority 1998, dated 2002).

For orientation: melting point means the temperature, or range, at which the solid turns liquid.

Compound `CCCCn1cnc2c(OC)nc(Nc3ccc(OCC)nc3)nc21` [compound 1, 2-[(2-Ethoxypyrid-5-yl)amino]-6-methoxy-9-butyl-9H-purine] gave a melting point of 174 to 176 °C.

`CCCCn1cnc2c(OC)nc(Nc3ccccc3)nc21` [compound 2, 2-(Phenylamino)-6-methoxy-9-butyl-9H-purine]: the melting point was 172 to 174 °C.

In turn, `CCCCn1cnc2c(OCC)nc(Nc3ccccc3)nc21` [compound 3, 2-(Phenylamino)-6-ethoxy-9-butyl-9H-purine] yielded a melting point of 159 to 160 °C.

Take `CCCCn1cnc2c(OCCC)nc(Nc3ccccc3)nc21` [compound 4, 2-(Phenylamino)-6-propoxy-9-butyl-9H-purine]: the melting point fell in the range of 115 to 116 °C.

Compound `CCCCn1cnc2c(OC(C)C)nc(Nc3ccccc3)nc21` [compound 5, 2-(Phenylamino)-6-isopropoxy-9-butyl-9H-purine] displayed a melting point of 116 to 118 °C.

With `CCCCn1cnc2c(OCC(C)C)nc(Nc3ccccc3)nc21` [compound 6, 2-(Phenylamino)-6-(2-methylprop-1-oxy)-9-butyl-9H-purine], the melting point lay in the range of 77 to 79 °C.

As to `CCCCn1cnc2c(OCC(F)(F)F)nc(Nc3ccccc3)nc21` [compound 7, 2-(Phenylamino)-6-(2,2,2-trifluoroethoxy)-9-butyl-9H-purine], the melting point lay in the range of 102 to 104 °C.

Consider `CCCCn1cnc2c(SCC)nc(Nc3ccccc3)nc21` [compound 8, 2-(Phenylamino)-6-(ethylthio)-9-butyl-9H-purine], for which the melting point fell in the range of 173 to 175 °C.

For the compound `CCCCn1cnc2c(OCC3CC3)nc(Nc3ccccc3)nc21` [compound 9, 2-(Phenylamino)-6-(cyclopropylmethoxy)-9-butyl-9H-purine], the melting point fell in the range of 124 to 126 °C.

`CCCCn1cnc2c(OCCOC)nc(Nc3ccccc3)nc21` [compound 10, 2-(Phenylamino)-6-(2-methoxyethoxy)-9-butyl-9H-purine] returned a melting point of 129 to 131 °C.

`CCCCn1cnc2c(OCCOCC)nc(Nc3ccccc3)nc21` [compound 11, 2-(Phenylamino)-6-(2-ethoxyethoxy)-9-butyl-9H-purine]: the melting point was 135 to 137 °C.

`CCCCn1cnc2c(OCCO)nc(Nc3ccccc3)nc21` [compound 12, 2-(Phenylamino)-6-(2-hydroxyethoxy)-9-butyl-9H-purine] yielded a melting point of 108 to 110 °C.

Regarding `CCCCn1cnc2c(OC(C)COC)nc(Nc3ccccc3)nc21` (stereo not shown) [compound 13, 2-(Phenylamino)-6-(1-methyl-2-methoxyethoxy)-9-butyl-9H-purine], the melting point lay within 96 to 98 °C.

In turn, `CCCCn1cnc2c(OCc3ccccc3)nc(Nc3ccccc3)nc21` [compound 14, 2-(Phenylamino)-6-benzyloxy-9-butyl-9H-purine] gave a melting point of 163 to 164 °C.

As for `CCCCn1cnc2c(OCc3ccccn3)nc(Nc3ccccc3)nc21` [compound 15, 2-(Phenylamino)-6-(pyrid-2-ylmethoxy)-9-butyl-9H-purine], the melting point fell in the range of 136 to 138 °C.

`CCCCn1cnc2c(OCc3cccnc3)nc(Nc3ccccc3)nc21` [compound 16, 2-(Phenylamino)-6-(pyrid-3-ylmethoxy)-9-butyl-9H-purine] registered a melting point of 206 to 207 °C.

In the case of `CCCCn1cnc2c(OCc3ccncc3)nc(Nc3ccccc3)nc21` [compound 17, 2-(Phenylamino)-6-(pyrid-4-ylmethoxy)-9-butyl-9H-purine], the melting point lay within 136 to 139 °C.

`CCCCn1cnc2c(OCc3cccs3)nc(Nc3ccccc3)nc21` [compound 18, 2-(Phenylamino)-6-(thien-2-ylmethoxy)-9-butyl-9H-purine] came in with a melting point of 170 to 172 °C.

In the case of `CCCCn1cnc2c(Oc3ccccc3)nc(Nc3ccccc3)nc21` [compound 19, 2-(Phenylamino)-6-phenoxy-9-butyl-9H-purine], the melting point was in the range of 124 to 125 °C.
